The values that follow come from US20250314661A1, “CHEMIGENETIC TOOLS AND METHODS OF CONTROLLING AND ASSESSING PROTEIN PHASE SEPARATION” (THE REGENTS OF THE UNIVERSITY OF CALIFORNIA, priority 2022, published 2025).

Data set [1] addresses MYCN fused to FRB and mEGFP (UniProt P04198). Nature of the data set: cell-based or functional assay.
In data set [2] the test system is ERK. Nature of the data set: ERK activity reporter ERK-KTR translocation after lenalidomide-induced SOScat translocation.
From the text: The relocated SOScat then activates Ras, which leads to ERK activation via the MAPK pathway.
The presence of SOS in the PM can activate Ras and promote ERK activity via the MAPK pathway (FIG. 2C, left). For targeting SOS to the PM, ZIF was first fused to the CAAX motif tagged with a red fluorescent protein (RFP). Next, CEL was fused to the catalytic domain of SOS (referred to as SOScat), which was tagged with a near infrared fluorescent protein IFP2 that helps visualizing SOScat translocation (FIG. 2C, left). […] To determine whether SOScat translocation activates ERK, a GFP translocation-based ERK activity reporter called ERK-KTR was used, which translocates from the nucleus to the cytoplasm upon activation of endogenous ERK (Regot et al. (2014) Cell 157:1724-1734).
The test system of data set [3] is Ctgf. Nature of the data set: RT-qPCR of YAP target gene Ctgf mRNA. The settings on record: cells transfected with CEL-EGFP-YAP without the ZIF construct. Type of data set: cell-based. On the procedure: FIG. 6A-D show representative images illustrating that the SparkDrop-Y AP condensates produce nascent RNAs and upregulate a direct target gene of Y AP. […] The cells were short labeled with EU for 1 hour. Arrows point to the induced YAP condensates and the colocalized nascent RNA droplets. Arrowhead points to nucleoli. The nucleus marked by asterisk was not transfected with SparkDrop-YAP. […] Data are shown as meant SD (n=3).
Lastly, whether the SparkDrop-Y AP condensates upregulate mRNA levels of a YAP target gene Ctgf were determined using RT-qPCR. […] As a control, cells were incubated with DMSO. […] Next, a positive control was conducted by incubating cells with sorbitol, which is known to induce osmotic stress and drive YAP condensate formation. […] Lastly, cells were transfected with CEL-EGFP-Y AP (without the ZIF construct), and incubated with lenalidomide or DMSO.

Data set [4] deals with other cells. To be noted: cells other than multiple myeloma; Siu et al. (2017); cited from earlier work.
The target of data set [5] is T1, DDB1 (UniProt Q16531 1-1140).
T1 construct: Tested both as endogenous protein of HEK293 cells and with exogenous over-expression; also called endogenous DDB1; exogenous DDB1
T1 sequence (Q16531 whole entry): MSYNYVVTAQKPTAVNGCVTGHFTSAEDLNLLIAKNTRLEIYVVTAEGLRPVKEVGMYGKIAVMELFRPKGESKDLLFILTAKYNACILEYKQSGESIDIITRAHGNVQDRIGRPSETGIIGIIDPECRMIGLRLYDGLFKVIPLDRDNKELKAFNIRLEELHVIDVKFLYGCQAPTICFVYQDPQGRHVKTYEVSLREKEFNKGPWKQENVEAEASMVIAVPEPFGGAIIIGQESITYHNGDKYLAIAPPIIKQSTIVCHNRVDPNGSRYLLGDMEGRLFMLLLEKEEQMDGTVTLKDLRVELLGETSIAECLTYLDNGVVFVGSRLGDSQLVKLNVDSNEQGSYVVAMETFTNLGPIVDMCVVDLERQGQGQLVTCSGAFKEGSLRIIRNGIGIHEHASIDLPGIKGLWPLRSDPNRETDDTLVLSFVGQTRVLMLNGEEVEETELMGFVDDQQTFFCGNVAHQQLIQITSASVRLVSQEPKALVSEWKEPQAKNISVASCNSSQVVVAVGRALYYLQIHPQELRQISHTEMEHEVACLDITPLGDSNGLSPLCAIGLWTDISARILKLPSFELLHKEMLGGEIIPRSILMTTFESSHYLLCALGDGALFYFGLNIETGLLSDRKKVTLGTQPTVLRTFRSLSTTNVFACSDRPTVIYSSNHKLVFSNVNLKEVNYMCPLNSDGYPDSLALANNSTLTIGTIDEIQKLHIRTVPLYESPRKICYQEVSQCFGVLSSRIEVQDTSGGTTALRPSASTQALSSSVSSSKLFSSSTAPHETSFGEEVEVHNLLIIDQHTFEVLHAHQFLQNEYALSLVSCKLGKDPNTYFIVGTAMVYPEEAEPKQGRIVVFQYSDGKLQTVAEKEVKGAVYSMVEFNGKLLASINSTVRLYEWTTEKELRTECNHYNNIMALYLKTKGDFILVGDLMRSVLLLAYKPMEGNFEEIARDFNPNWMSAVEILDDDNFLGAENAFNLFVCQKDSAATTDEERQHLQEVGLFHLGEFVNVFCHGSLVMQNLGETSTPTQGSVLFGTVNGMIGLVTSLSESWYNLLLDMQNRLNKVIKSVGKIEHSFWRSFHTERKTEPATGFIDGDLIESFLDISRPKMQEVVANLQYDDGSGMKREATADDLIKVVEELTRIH
Nature of the data set: FLAG pull-down and Western blot against DDB1, HEK293 cells, with or without exogenous DDB1. On the technique in general: Immunoblotting shows a protein as a band on a membrane.

Sequence of MYCN fused to FRB and mEGFP (P04198 other isoform, or with tags, fused parts or gaps): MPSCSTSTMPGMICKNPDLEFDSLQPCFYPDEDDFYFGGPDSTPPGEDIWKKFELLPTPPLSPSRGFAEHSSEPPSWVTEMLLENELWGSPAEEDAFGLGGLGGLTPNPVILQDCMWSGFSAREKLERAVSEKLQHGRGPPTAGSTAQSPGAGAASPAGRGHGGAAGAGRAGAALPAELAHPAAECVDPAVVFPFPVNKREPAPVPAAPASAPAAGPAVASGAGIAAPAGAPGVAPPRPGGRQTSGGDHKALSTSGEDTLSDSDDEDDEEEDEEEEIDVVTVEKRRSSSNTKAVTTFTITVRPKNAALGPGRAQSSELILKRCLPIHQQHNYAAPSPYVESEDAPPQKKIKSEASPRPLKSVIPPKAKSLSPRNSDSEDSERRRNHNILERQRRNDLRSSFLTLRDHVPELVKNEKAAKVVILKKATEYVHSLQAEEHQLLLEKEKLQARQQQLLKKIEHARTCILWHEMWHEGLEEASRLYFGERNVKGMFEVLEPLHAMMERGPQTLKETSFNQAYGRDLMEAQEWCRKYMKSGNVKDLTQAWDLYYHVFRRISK

“SUMO-mCherry-FKBP (from UniProt P62942 2-108)” displayed a dissolution of MYCN condensates after addition of rapamycin in data set [1] of 10 min.

In the case of `Nc1cccc2c1CN(C1CCC(=O)NC1=O)C2=O` (stereo not shown) [lenalidomide], the ERK-KTR translocation result in data set [2] (cells expressing CEL-IFP2-SOScat and ZIF-RFP-CAAX) was “translocated from the nucleus to the cytoplasm”. Further, the “ERK-KTR translocation, control without ZIF” value in data set [2] (cells expressing CEL-IFP2-SOScat without ZIF) is “did not induce ERK-KTR translocation”. In addition, the “Ctgf mRNA, control without ZIF construct” value in data set [3] is on record as “not upregulated”. In data set [4], the “toxicity in other cells” value is given as “no or little toxicity”.

As for `O=C1CCC(N2C(=O)c3ccccc3C2=O)C(=O)N1` (stereo not shown) [thalidomide], in data set [4], the “toxicity in other cells” value is “no or little toxicity”.

B1: FLAG-tagged CEL (109 amino acid CRBN C-terminal domain) (other)
chain: SLCCKQCQETEITTKNEIFSLSLCGPMAAYVNPHGYVHETLTVYKACNLNLIGRPSTEHSWFPGYAWTVAQCKICASHIGWKFTATKKDMSPQKFWGLTRSALLPTIPD
notes: Expressed in HEK293 cells; also called CRBN CTD; not shown: FLAG tag
Consider B1, for which the binding result in data set [5] is reported as “no binding”.
